In one experiment the test system is THP-1. As to the kind of experiment: Antiinflammatory activity in human THP1 cells assessed as inhibition of LPS-induced TNFalpha production pretreated 30 mins before LPS challenge measured after 4 hrs. It is filed as functional, cell-based.
Experiment [1] concerns the target T1, MAP kinase-activated protein kinase 2 (Homo sapiens, UniProt P49137). Briefly: Inhibition of MK2 in LPS-stimulated human THP1 cells assessed as inhibition of Hsp27 phosphorylation pretreated 60 mins before LPS challenge measured after 10 mins. It is filed as cell-based, THP-1.
The target of experiment [2] is Serine/threonine-protein kinase pim-1 (Homo sapiens) (UniProt P11309). Briefly: Inhibition of PIM1 at 1 uM.
Chain of Serine/threonine-protein kinase pim-1 (Homo sapiens) (P11309 whole entry, looked up): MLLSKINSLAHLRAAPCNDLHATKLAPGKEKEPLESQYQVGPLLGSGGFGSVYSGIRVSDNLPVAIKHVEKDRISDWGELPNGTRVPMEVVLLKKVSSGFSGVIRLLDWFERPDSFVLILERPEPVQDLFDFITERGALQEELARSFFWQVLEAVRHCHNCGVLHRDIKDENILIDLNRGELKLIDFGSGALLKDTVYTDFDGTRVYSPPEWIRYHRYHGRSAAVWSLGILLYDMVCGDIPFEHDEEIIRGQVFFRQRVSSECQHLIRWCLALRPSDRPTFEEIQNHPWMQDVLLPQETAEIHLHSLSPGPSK
The target of experiment [3] is Mitogen-activated protein kinase 3 (Homo sapiens) (UniProt P27361). As to the kind of experiment: Inhibition of ERK1 at 1 uM.
Chain of Mitogen-activated protein kinase 3 (Homo sapiens) (P27361 whole entry): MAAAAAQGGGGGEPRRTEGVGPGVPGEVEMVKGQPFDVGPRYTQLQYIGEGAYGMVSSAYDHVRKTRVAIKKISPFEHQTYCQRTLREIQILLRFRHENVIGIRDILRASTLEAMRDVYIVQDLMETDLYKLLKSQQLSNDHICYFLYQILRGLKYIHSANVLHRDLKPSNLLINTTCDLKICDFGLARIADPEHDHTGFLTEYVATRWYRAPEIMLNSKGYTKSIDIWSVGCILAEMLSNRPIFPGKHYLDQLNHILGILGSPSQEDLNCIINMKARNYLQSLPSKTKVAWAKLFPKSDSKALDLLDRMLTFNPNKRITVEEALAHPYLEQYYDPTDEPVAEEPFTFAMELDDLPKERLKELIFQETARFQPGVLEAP
Experiment [4] has as its target T2, Serine/threonine-protein kinase 17A (Homo sapiens) (UniProt Q9UEE5).
T2 sequence (whole entry): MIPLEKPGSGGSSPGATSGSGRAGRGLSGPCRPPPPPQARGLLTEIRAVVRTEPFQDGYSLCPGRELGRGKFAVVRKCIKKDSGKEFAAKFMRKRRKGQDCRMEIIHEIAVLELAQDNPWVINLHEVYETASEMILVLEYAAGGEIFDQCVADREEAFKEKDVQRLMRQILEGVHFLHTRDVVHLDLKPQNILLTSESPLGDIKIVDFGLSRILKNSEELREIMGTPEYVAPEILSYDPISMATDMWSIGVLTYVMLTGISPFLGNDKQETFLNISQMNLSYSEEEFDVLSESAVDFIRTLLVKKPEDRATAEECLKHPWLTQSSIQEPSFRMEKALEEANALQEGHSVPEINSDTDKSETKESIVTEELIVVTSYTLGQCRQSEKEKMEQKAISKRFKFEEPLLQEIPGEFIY
As to the kind of experiment: Inhibition of DRAK1 at 1 uM.

In experiment [5] the target is Serine/threonine-protein kinase pim-3 (Homo sapiens) (UniProt Q86V86). As to the kind of experiment: Inhibition of PIM3 at 1 uM.
Experiment [6] deals with Mitogen-activated protein kinase 1 (Homo sapiens) (UniProt P28482). As to the kind of experiment: Inhibition of ERK2 at 1 uM.
Chain of Mitogen-activated protein kinase 1 (Homo sapiens) (P28482 whole entry, looked up): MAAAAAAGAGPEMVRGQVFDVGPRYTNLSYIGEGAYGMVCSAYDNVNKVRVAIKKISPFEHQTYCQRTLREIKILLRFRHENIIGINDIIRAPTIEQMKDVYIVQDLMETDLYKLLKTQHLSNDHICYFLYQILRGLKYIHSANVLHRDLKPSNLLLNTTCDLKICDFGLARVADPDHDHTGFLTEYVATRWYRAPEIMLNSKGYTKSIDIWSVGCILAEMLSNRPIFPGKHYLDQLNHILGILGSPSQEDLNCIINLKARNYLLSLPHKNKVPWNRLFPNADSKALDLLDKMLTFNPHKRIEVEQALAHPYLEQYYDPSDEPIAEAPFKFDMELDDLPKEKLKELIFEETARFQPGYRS
The nature of experiment [7]: Inhibition of p38.
For a further experiment, the system named is PBMC. As to the kind of experiment: Antiinflammatory activity in human PBMC cells assessed as inhibition of LPS-induced TNFalpha production pretreated 30 mins before LPS challenge measured after 4 hrs by ELISA. It is filed as functional, cell-based. (In an ELISA, binding on a coated surface is turned into a signal by an enzyme label.)
The target in experiment [8] is Serine/threonine-protein kinase Chk2 (Homo sapiens) (UniProt O96017). As to the kind of experiment: Inhibition of CHK2 at 1 uM.
Chain of Serine/threonine-protein kinase Chk2 (Homo sapiens) (O96017 whole entry): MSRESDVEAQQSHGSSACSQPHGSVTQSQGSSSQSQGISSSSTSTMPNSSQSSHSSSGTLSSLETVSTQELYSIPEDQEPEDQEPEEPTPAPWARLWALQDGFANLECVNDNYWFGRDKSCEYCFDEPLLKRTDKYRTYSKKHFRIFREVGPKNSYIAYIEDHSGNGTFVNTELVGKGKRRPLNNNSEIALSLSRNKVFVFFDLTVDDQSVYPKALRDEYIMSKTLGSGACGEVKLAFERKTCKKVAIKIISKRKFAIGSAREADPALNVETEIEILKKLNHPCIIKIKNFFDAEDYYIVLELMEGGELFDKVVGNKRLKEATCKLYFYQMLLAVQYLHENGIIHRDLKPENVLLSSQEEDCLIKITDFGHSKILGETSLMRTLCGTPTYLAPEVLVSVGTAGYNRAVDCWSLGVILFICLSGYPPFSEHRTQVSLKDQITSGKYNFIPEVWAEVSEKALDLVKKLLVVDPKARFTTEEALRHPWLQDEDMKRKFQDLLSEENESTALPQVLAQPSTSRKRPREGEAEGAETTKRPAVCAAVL
Experiment [9] addresses T1, MAP kinase-activated protein kinase 2. Briefly: Inhibition of MK2 pretreated for 30 mins before fluorescein labeled substrate peptide addition measured after 2 hrs by IMAP assay.

Structures are written as SMILES. The source made the active and inactive calls. The calls are words filed in the database; no cut-off is given here.

T1 sequence (P49137 whole entry): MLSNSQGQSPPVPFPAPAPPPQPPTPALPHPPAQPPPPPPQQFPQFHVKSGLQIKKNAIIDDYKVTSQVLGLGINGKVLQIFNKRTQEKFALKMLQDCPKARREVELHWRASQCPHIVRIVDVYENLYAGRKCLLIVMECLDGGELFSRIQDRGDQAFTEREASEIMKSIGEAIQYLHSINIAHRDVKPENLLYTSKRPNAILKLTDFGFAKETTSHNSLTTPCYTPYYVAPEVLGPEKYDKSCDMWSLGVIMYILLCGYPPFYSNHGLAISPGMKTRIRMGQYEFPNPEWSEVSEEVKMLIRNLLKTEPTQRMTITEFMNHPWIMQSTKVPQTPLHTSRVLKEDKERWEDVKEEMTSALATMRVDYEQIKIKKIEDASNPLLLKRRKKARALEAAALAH

`COCCCOc1ccc(-c2nccc(-c3cc4c([nH]3)[C@@]3(CCCNC3)CNC4=O)n2)cn1`: the EC50 is > 10000 nM in the experiment with THP-1, > 10000 nM in [1], 6900 nM with PBMC and 129 nM in experiment [9]. In addition, the inhibition in [2], in experiment [3], in experiment [4], in experiment [5], in [6] and in experiment [8] was > 80% in each case. In experiment [7], the inhibition result was “inactive”.

With `COCCCOc1ccc(-c2nccc(-c3cc4c([nH]3)[C@]3(CCCNC3)CNC4=O)n2)cn1`, the EC50 in the experiment on THP-1 is 980 nM; in experiment [1], 400 nM; with PBMC, 430 nM; in experiment [9], 6.9 nM. The inhibition in [2], in experiment [3], in [4], in experiment [5], in experiment [6] and in [8] was > 80% each time. Also, in experiment [7], the inhibition result is “inactive”.

As to `O=C1NC[C@]2(CCCNC2)c2[nH]c(-c3ccnc(-c4cccnc4)n3)cc21`, the EC50 in the experiment with THP-1 amounted to 8700 nM; in experiment [1], 5800 nM; with PBMC it was 4300 nM; in experiment [9], 288 nM. Besides, the inhibition in [2], in experiment [3], in experiment [4], in [5], in experiment [6] and in experiment [8] was > 80% throughout. The inhibition entry in experiment [7] was “inactive”.

On to `O=C1NCC2(CCNCC2)c2[nH]c(-c3ccnc(-c4ccc5c(c4)OCCCO5)n3)cc21`, for which the EC50 with THP-1 amounted to 4900 nM; in [9], 10 nM. Also, the inhibition in [2], in [3], in [4], in experiment [5], in experiment [6] and in experiment [8] was > 80% each time. In experiment [7], the inhibition entry was “inactive”.

For `O=C1NC[C@]2(CCCNC2)c2[nH]c(-c3ccnc(-c4ccc5c(c4)OCO5)n3)cc21`, the EC50 in the experiment on THP-1 stood at 8300 nM; in [1] it was 7700 nM; in the experiment on PBMC, 3000 nM; in experiment [9], 91 nM. Besides, the inhibition in experiment [2], in experiment [3], in [4], in experiment [5], in [6] and in experiment [8] was > 80% in each case. In addition, in experiment [7], the inhibition result is “inactive”.

In the case of `O=C1NCC2(CCOCC2)c2[nH]c(-c3ccnc(-c4ccc5c(c4)OCO5)n3)cc21`, the EC50 in the experiment with THP-1 is > 10000 nM; in experiment [9], 724 nM. The inhibition in experiment [2], in experiment [3], in experiment [4], in [5], in [6] and in experiment [8] was > 80% throughout. In addition, in [7], the inhibition result was “inactive”.

Consider `O=C1NCC2(CCNCC2)c2[nH]c(-c3ccnc(-c4cc(Cl)cc(Cl)c4)n3)cc21`, for which the EC50 is 6300 nM in the experiment on THP-1 and 4.5 nM in experiment [9]. In addition, the inhibition in [2], in [3], in [4], in experiment [5], in experiment [6] and in experiment [8] was > 80% throughout. Further, the inhibition entry in experiment [7] is “inactive”.

Take `O=C1NCC2(CCNCC2)c2[nH]c(-c3ccnc(-c4ccccc4F)n3)cc21`: the concentration giving a half-maximal response (EC50) in the experiment on THP-1 was 4200 nM; in [9], 29 nM. Also, the inhibition in experiment [2], in [3], in experiment [4], in experiment [5], in [6] and in [8] was > 80% throughout. In addition, the inhibition result in [7] is “inactive”.

Take `COc1cncc(-c2nccc(-c3cc4c([nH]3)[C@@]3(CCCNC3)CNC4=O)n2)c1`: the EC50 in the experiment on THP-1 was 2200 nM; in experiment [1], 2300 nM; with PBMC, > 10000 nM; in [9], 126 nM. The inhibition in experiment [2], in [3], in experiment [4], in experiment [5], in [6] and in experiment [8] was > 80% each time. The inhibition result in experiment [7] is “inactive”.

Turning to `O=C1NC[C@@]2(CCCNC2)c2[nH]c(-c3ccnc(-c4cccnc4)n3)cc21`, the EC50 in the experiment with THP-1 was determined as 1600 nM; in experiment [1], 1200 nM; in the experiment on PBMC it was 930 nM; in experiment [9], 6.5 nM. Besides, the inhibition in experiment [2], in [3], in experiment [4], in experiment [5], in experiment [6] and in experiment [8] was > 80% in each case. For the same compound, the inhibition entry in experiment [7] is “inactive”.

Take `CC(=O)c1cccc(-c2nccc(-c3cc4c([nH]3)C3(CCNCC3)CNC4=O)n2)c1`: the EC50 came out at 6200 nM with THP-1 and 11 nM in [9]. Also, the inhibition in experiment [2], in [3], in experiment [4], in [5], in [6] and in [8] was > 80% throughout. The inhibition entry in experiment [7] is “inactive”.

Regarding `O=C1NCC2(CCNCC2)c2[nH]c(-c3ccnc(-c4ccc5ccccc5c4)n3)cc21`, the EC50 worked out at 3600 nM in the experiment on THP-1 and 5.1 nM in experiment [9]. In addition, the inhibition in experiment [2], in experiment [3], in [4], in experiment [5], in [6] and in experiment [8] was > 80% each time. Further, the inhibition result in experiment [7] is “inactive”.

In the case of `O=C1NC[C@@]2(CCCNC2)c2[nH]c(-c3ccnc(-c4ccc5c(c4)OCO5)n3)cc21`, the EC50 with THP-1 came to 850 nM; in [1], 500 nM; in the experiment on PBMC it was 450 nM; in [9], 7.4 nM. The inhibition in [2], in experiment [3], in experiment [4], in [5], in [6] and in experiment [8] was > 80% each time. Moreover, the inhibition entry in experiment [7] was “inactive”.

As for `O=C1NCC2(CCNCC2)c2[nH]c(-c3ccnc(-c4cccc(F)c4)n3)cc21`, the figures for the EC50 (in the experiment with THP-1; in [9]) were 1400 nM and 8.3 nM, respectively. Besides, the inhibition in experiment [2], in [3], in [4], in [5], in experiment [6] and in [8] was > 80% in each case. The inhibition result in experiment [7] is “inactive”.

Consider `CC(C)c1cccc(-c2nccc(-c3cc4c([nH]3)C3(CCNCC3)CNC4=O)n2)c1`, for which the EC50 is > 10000 nM in the experiment with THP-1 and 112 nM in experiment [9]. Further, the inhibition in experiment [2], in experiment [3], in experiment [4], in experiment [5], in [6] and in experiment [8] was > 80% each time. The inhibition result in experiment [7] was “inactive”.

Take `O=C1NCC2(CCNCC2)c2[nH]c(-c3ccnc(-c4cnc(NC5CCCC5)nc4)n3)cc21`: the EC50 in the experiment with THP-1 was found to be 2600 nM; in experiment [9], 4.9 nM. For the same compound, the inhibition in [2], in [3], in experiment [4], in experiment [5], in experiment [6] and in experiment [8] was > 80% throughout. The inhibition entry in [7] was “inactive”.

For `O=C1NCC2(CCNCC2)c2[nH]c(-c3ccnc(-c4cccnc4)n3)cc21`, the EC50 in the experiment with THP-1 is > 10000 nM; in experiment [9], 1.1 nM. Moreover, the inhibition in experiment [2], in experiment [3], in experiment [4], in experiment [5], in experiment [6] and in experiment [8] was > 80% throughout. Besides, the inhibition result in [7] is “inactive”.

For `Nc1ncc(-c2nccc(-c3cc4c([nH]3)C3(CCNCC3)CNC4=O)n2)cn1`, the values for the EC50 (in the experiment on THP-1; in experiment [9]) were > 10000 nM and 5 nM, respectively. Besides, the inhibition in experiment [2], in experiment [3], in experiment [4], in [5], in experiment [6] and in experiment [8] was > 80% in each case. Further, the inhibition entry in [7] is “inactive”.

A word on the EC50: it is the concentration needed to bring the measured effect to its halfway point. A word on the inhibition: it is the drop in the measured response relative to a control, in per cent.

Values taken from ChEMBL document CHEMBL1777706, “Discovery of selective and orally available spiro-3-piperidyl ATP-competitive MK2 inhibitors” (Bioorg Med Chem Lett, 2011).
